Reference: patent publication US10696651B2, “Heterocyclic compound” (Takeda Pharmaceutical Company Limited, priority 2016, dated 2020)

Experiments:
[1] = target: T1, human GCN2 full-length protein (Homo sapiens, UniProt Q9P2K8); experiment: GCN2 enzyme inhibition assay (LanthaScreen TR-FRET); assay type: biochemical; conditions: GCN2 enzyme inhibitory activity at compound concentration of 3 μM; Table 3-1; read-out: inhibitory rate
T1 construct: purchased Carna Biosciences, Inc
Summary of the method: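 Full-length human GCN2 was preincubated with compound for 1 hr at room temperature, then reacted for 1 hr with substrate and ATP added from a 570 μM ATP / 390 nM substrate solution (stock concentrations). Phosphorylation was detected by TR-FRET with a terbium-labelled anti-eIF2alpha antibody after 1 hr, with enzyme-free wells as control.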

[2] = tested on: ATF4 expression in CCRF-CEM tumor; experiment: In vivo ATF4 expression suppression assay (Western blot of CCRF-CEM xenograft tumor) in the presence of L-asparaginase; conditions: compound 10 mg/kg oral 8 hr before tumor removal, L-asparaginase 1000 U/kg s.c. 32 hr and 8 hr before, CCRF-CEM xenograft in SCID mouse
Text: One million human acute lymphoblastic leukemia cell lines CCRF-CEM obtained from ATCC (American Type Culture Collection) were suspended in Matrigel solution (Corning) and implanted subcutaneously into 6-week-old female SCID mouse (CLEA Japan, Inc.) by injection. The mice in which the tumor engrafted to a size of about 200-1000 mm^3 tumor volume after transplantation were selected and 3 mice per group were used for the experiment. L-asparaginase (Kyowa Hakko Kogyo Co., Ltd.) was subcutaneously administered at a dose of 1000 U/kg 32 hr and 8 hr before tumor removal. A 0.5% methylcellulose suspension of the compound was orally administered at a dose of 10 mg/kg 8 hr before tumor removal. After tumor removal, protein was extracted using Lysing Matrix I tube (MP Biomedicals) containing a protein extract (10% glycerol, 1% sodium dodecyl sulfate, 62.5 mM Tris-HCl [pH 7.5], protease and phosphatase inhibitors [Complete mini and PhosSTOP, Sigma-Aldrich Co. LLC.]) and subjected to Western blot.
(§1) Protein extract solution was subjected to protein quantification with BCA Protein Assay Kit (Thermo Scientific), electrophoresed on 7.5-15% SDS-PAGE gel (DRC), and protein in the gel was transferred to PVDF membrane. The membrane was blocked with Starting Block T20 (PBS) Blocking Buffer (Thermo Scientific). […] Thereafter, chemiluminescence was performed using ImmunoStar LD (Wako Pure Chemical Industries, Ltd.), and luminescence intensity was measured by LAS-3000 image analyzer (Fuji Film Co., Ltd.). Furthermore, the expression level of ATF4 was digitized by quantifying the luminescence intensity using Multi Gauge Ver. […]
Based on the ATF4 expression level of the control group orally administered with 0.5% methylcellulose suspension free of Example compound and the treatment group orally administered with Example compound suspension, the ATF4 expression inhibition ratio (%) of the test compound at a compound dose 10 mg/kg was calculated by the following formula and the results thereof are shown in Table 6. […]

[3] = tested on: osteosarcoma cell line U-2-OS; experiment: In vitro cell proliferation inhibition assay (CellTiter-Glo, low amino acid media); assay type: cell-based; conditions: Homo sapiens, U2OS, 72 h, cell proliferation inhibitory rate, McCoy's 5A low amino acid media, Table 4-1
Summary of the method: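 Cells seeded at 1000 per well in McCoy's 5A low amino acid medium (25% amino acid content), then exposed to compound for 72 h at 37° C., 5% CO2. ATP measured by CellTiter-Glo luminescence. Inhibition (%) at 100 nM calculated relative to pre-treatment and untreated control wells.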

[4] = tested on: ATF4 expression in human acute lymphoblastic leukemia cell line CCRF-CEM; experiment: In vitro ATF4 expression suppression assay (Western blot) in the presence of L-asparaginase; assay type: cell-based; conditions: compound concentration 400 nM, L-asparaginase 0.1 U/mL, 4 hr
Protocol: A cell suspension (40 μL) (500000 cells/well) of human acute lymphoblastic leukemia cell line CCRF-CEM obtained from ATCC (American Type Culture Collection) was seeded on a 12 well plate using RPMI1640 medium. The seeded cells were incubated (37° C., 5% CO2) overnight to 24 hr at the longest. L-asparaginase (Sigma-Aldrich Co. LLC.) was dissolved in PBS and treated in each well to a final concentration of 0.1 U/mL. Furthermore, each test compound was dissolved (10 mM) in DMSO, delivered to wells by using TECAN HP D300 (TECAN), and the plate was incubated for 4 hr (37° C., 5% CO2). A well without addition of compound was treated similarly as a control group. […]
as §1, with “membrane.” for “membrane. The membrane was blocked with Starting Block T20 (PBS) Blocking Buffer (Thermo Scientific).”

T1 sequence (Q9P2K8 whole entry): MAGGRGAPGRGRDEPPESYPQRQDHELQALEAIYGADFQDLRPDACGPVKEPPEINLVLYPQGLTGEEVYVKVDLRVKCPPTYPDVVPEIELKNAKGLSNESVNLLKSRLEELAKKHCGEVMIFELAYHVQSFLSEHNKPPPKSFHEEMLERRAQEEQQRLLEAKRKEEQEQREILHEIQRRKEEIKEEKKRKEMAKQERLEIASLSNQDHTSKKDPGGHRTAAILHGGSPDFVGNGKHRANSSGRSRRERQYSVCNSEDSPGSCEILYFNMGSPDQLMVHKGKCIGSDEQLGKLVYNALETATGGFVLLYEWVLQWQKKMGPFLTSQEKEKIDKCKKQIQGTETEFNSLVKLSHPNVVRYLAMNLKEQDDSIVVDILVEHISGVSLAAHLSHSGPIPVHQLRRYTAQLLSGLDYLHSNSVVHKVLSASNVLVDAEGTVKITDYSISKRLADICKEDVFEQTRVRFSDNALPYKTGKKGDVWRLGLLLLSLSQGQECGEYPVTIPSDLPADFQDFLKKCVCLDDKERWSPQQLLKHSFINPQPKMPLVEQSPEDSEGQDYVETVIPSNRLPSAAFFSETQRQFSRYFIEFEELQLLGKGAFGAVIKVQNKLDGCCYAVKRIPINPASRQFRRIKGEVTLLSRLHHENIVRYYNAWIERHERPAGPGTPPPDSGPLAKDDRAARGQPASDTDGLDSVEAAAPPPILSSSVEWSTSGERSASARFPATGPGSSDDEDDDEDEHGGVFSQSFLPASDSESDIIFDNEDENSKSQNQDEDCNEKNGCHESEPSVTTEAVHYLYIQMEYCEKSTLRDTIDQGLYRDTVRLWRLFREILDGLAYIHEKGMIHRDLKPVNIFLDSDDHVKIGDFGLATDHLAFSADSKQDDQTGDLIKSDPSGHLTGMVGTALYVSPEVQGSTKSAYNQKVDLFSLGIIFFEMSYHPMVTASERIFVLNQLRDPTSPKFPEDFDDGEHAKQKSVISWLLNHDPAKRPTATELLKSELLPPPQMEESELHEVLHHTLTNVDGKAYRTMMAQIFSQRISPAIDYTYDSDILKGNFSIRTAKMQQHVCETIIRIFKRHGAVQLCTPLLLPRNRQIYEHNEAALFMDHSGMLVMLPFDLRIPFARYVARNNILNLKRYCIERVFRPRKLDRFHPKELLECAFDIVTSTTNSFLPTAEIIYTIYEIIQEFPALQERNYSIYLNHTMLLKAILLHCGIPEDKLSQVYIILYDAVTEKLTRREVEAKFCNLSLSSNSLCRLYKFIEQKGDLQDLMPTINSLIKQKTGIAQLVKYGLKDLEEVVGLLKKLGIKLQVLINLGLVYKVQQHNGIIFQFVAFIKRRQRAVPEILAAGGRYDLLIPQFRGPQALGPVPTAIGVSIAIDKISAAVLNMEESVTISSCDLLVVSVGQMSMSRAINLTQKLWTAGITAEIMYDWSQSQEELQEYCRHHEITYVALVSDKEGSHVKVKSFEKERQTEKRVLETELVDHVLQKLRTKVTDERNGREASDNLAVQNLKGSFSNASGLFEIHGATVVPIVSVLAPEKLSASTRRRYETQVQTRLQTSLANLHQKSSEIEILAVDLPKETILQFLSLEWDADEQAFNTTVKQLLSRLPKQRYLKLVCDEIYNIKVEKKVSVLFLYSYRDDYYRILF

inhibition at 3 µM [1] [%]	Compound	in vivo ATF4 expression inhibition ratio (%) [2] [%]	inhibition at 0.1 µM [3] [%]	in vitro ATF4 expression inhibition ratio (%) [4] [%]
100	Nc1ncc(C#Cc2c(F)ccc(NS(=O)(=O)c3cc(Cl)cc(CO)c3Cl)c2F)cn1 [Example 4, N-(3-((2-aminopyrimidin-5-yl)ethynyl)-2,4-difluorophenyl)-2,5-dichloro-3-(hydroxymethyl)benzenesulfonamide]	76	90	97
100	COc1ncc(Cl)cc1S(=O)(=O)Nc1ccc(F)c(C#Cc2cnc(N)nc2)c1F [Example 7, N-(3-((2-aminopyrimidin-5-yl)ethynyl)-2,4-difluorophenyl)-5-chloro-2-methoxypyridine-3-sulfonamide]	74	96	97
